Laboratory results reported in the supplement of paper PMC10307832.

Assays:
Assay in all cases: relative viability (nuclei count vs DMSO), 5 days (fraction); higher = more cells survive
SW 1573 = test system: SW 1573
How it was run: (§1)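 Lung cancer cell lines, seeded in 1536-well plates, were treated the following day by pin tool with a single drug or with five library-drug doses (not always all listed) in √10 steps on top of a fixed anchor-drug dose. Cells were fixed and nuclei stained in one step after 5 days, and nuclei were counted. Relative viability is the nuclei count for treated wells divided by that for vehicle wells, reported as medians of duplicate plates.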

COR-L23 = test system: COR-L23
How it was run: as §1

NCI-H3122 = test system: NCI-H3122
How it was run: as §1

NCI-H1993 = test system: NCI-H1993
How it was run: as §1

NCI-H2009 = test system: NCI-H2009
How it was run: as §1

NCI-H596 = test system: NCI-H596
How it was run: as §1

NCI-H727 = test system: NCI-H727
How it was run: as §1

HARA = test system: HARA
How it was run: as §1

ABC-1 = test system: ABC-1
How it was run: as §1

A-427 = test system: A-427
How it was run: as §1

EMC-BAC-2 = test system: EMC-BAC-2
How it was run: as §1

NCI-H2228 = test system: NCI-H2228
How it was run: as §1

NCI-H1792 = test system: NCI-H1792
How it was run: as §1

HOP-62 = test system: HOP-62
How it was run: as §1

SK-LU-1 = test system: SK-LU-1
How it was run: as §1

PC-3 [JPC-3] = test system: PC-3 [JPC-3]
How it was run: as §1

LXF-289 = test system: LXF-289
How it was run: as §1

NC(=O)Nc1cc(-c2cccc(F)c2)sc1C(=O)N[C@H]1CCCNC1 [AZD7762] + CC(C)C[C@H](NC(=O)[C@H](Cc1ccccc1)NC(=O)c1cnccn1)B(O)O [Bortezomib] (partner 0.002 µM)
relative viability (SW 1573; first compound 0.01 µM): 1.12 | relative viability (SW 1573; first compound 0.03162 µM): 1.4 | relative viability (SW 1573; first compound 0.1 µM): 1.21 | relative viability (SW 1573; first compound 0.3162 µM): 1.22 | relative viability (SW 1573; first compound 1 µM): 0.771 | relative viability (COR-L23; first compound 0.01 µM): 1.12 | relative viability (COR-L23; first compound 0.03162 µM): 0.981 | relative viability (COR-L23; first compound 0.1 µM): 0.985 | relative viability (COR-L23; first compound 0.3162 µM): 0.905 | relative viability (COR-L23; first compound 1 µM): 0.229 | relative viability (NCI-H3122; first compound 0.01 µM): 1.04 | relative viability (NCI-H3122; first compound 0.03162 µM): 1.01 | relative viability (NCI-H3122; first compound 0.1 µM): 1.05 | relative viability (NCI-H3122; first compound 0.3162 µM): 0.966 | relative viability (NCI-H3122; first compound 1 µM): 1.09 | relative viability (NCI-H1993; first compound 0.01 µM): 1.2 | relative viability (NCI-H1993; first compound 0.03162 µM): 1.08 | relative viability (NCI-H1993; first compound 0.1 µM): 1.07 | relative viability (NCI-H1993; first compound 0.3162 µM): 1.36 | relative viability (NCI-H1993; first compound 1 µM): 0.841 | relative viability (NCI-H2009; first compound 0.01 µM): 0.904 | relative viability (NCI-H2009; first compound 0.03162 µM): 1.13 | relative viability (NCI-H2009; first compound 0.1 µM): 1.08 | relative viability (NCI-H2009; first compound 0.3162 µM): 0.839 | relative viability (NCI-H2009; first compound 1 µM): 0.794 | relative viability (NCI-H596; first compound 0.01 µM): 1.02 | relative viability (NCI-H596; first compound 0.03162 µM): 0.896 | relative viability (NCI-H596; first compound 0.1 µM): 1.13 | relative viability (NCI-H596; first compound 0.3162 µM): 1.2 | relative viability (NCI-H596; first compound 1 µM): 1.03 | relative viability (NCI-H727; first compound 0.01 µM): 1.04 | relative viability (NCI-H727; first compound 0.03162 µM): 0.878 | relative viability (NCI-H727; first compound 0.1 µM): 0.556 | relative viability (NCI-H727; first compound 0.3162 µM): 0.446 | relative viability (NCI-H727; first compound 1 µM): 0.298 | relative viability (HARA; first compound 0.01 µM): 1.08 | relative viability (HARA; first compound 0.03162 µM): 1.11 | relative viability (HARA; first compound 0.1 µM): 1.14 | relative viability (HARA; first compound 0.3162 µM): 1.13 | relative viability (HARA; first compound 1 µM): 0.42 | relative viability (ABC-1; first compound 0.01 µM): 0.276 | relative viability (ABC-1; first compound 0.03162 µM): 0.389 | relative viability (ABC-1; first compound 0.1 µM): 0.3 | relative viability (ABC-1; first compound 0.3162 µM): 0.26 | relative viability (ABC-1; first compound 1 µM): 0.202 | relative viability (A-427; first compound 0.01 µM): 0.988 | relative viability (A-427; first compound 0.03162 µM): 0.965 | relative viability (A-427; first compound 0.1 µM): 0.989 | relative viability (A-427; first compound 0.3162 µM): 1.04 | relative viability (A-427; first compound 1 µM): 0.272 | relative viability (EMC-BAC-2; first compound 0.01 µM): 1.12 | relative viability (EMC-BAC-2; first compound 0.03162 µM): 1.08 | relative viability (EMC-BAC-2; first compound 0.1 µM): 1.09 | relative viability (EMC-BAC-2; first compound 0.3162 µM): 1.15 | relative viability (EMC-BAC-2; first compound 1 µM): 1.12 | relative viability (NCI-H2228; first compound 0.01 µM): 1.04 | relative viability (NCI-H2228; first compound 0.03162 µM): 1.33 | relative viability (NCI-H2228; first compound 0.1 µM): 1.03 | relative viability (NCI-H2228; first compound 0.3162 µM): 0.723 | relative viability (NCI-H2228; first compound 1 µM): 0.389 | relative viability (NCI-H1792; first compound 0.01 µM): 0.982 | relative viability (NCI-H1792; first compound 0.03162 µM): 0.941 | relative viability (NCI-H1792; first compound 0.1 µM): 0.925 | relative viability (NCI-H1792; first compound 0.3162 µM): 1.01 | relative viability (NCI-H1792; first compound 1 µM): 1.04 | relative viability (HOP-62; first compound 0.01 µM): 0.817 | relative viability (HOP-62; first compound 0.03162 µM): 0.605 | relative viability (HOP-62; first compound 0.1 µM): 0.491 | relative viability (HOP-62; first compound 0.3162 µM): 0.725 | relative viability (HOP-62; first compound 1 µM): 0.43 | relative viability (SK-LU-1; first compound 0.01 µM): 1.34 | relative viability (SK-LU-1; first compound 0.03162 µM): 1.05 | relative viability (SK-LU-1; first compound 0.1 µM): 0.853 | relative viability (SK-LU-1; first compound 0.3162 µM): 0.36 | relative viability (SK-LU-1; first compound 1 µM): 0.269 | relative viability (PC-3 [JPC-3]; first compound 0.01 µM): 0.886 | relative viability (PC-3 [JPC-3]; first compound 0.03162 µM): 0.88 | relative viability (PC-3 [JPC-3]; first compound 0.1 µM): 0.829 | relative viability (PC-3 [JPC-3]; first compound 0.3162 µM): 0.883 | relative viability (PC-3 [JPC-3]; first compound 1 µM): 0.785 | relative viability (LXF-289; first compound 0.01 µM): 0.918 | relative viability (LXF-289; first compound 0.03162 µM): 0.947 | relative viability (LXF-289; first compound 0.1 µM): 1.07 | relative viability (LXF-289; first compound 0.3162 µM): 1 | relative viability (LXF-289; first compound 1 µM): 1.12
